{"source": "patent US20150105252A1", "about": "“SUBSTITUTED PYRAZOLES AS HERBICIDES” (E I DU PONT DE NEMOURS AND COMPANY, priority 2013, published 2015)", "test_in_all_cases": "Test C postemergence", "key": {"barnyardgrass": {"tested_on": "barnyardgrass", "type": "in vivo, Echinochloa crus-galli", "how_it_was_run": "(§1)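 Seeds sown in loam–sand blend and treated preemergence with test chemicals in non-phytotoxic solvent with surfactant; postemergence plants in peat-based medium, treated at 2–18 cm (1- to 4-leaf stage). Greenhouse 13 to 15 days, then visual rating versus controls, 0 (no effect) to 100 (complete control).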"}, "ryegrass, Italian": {"tested_on": "ryegrass, Italian", "type": "in vivo, Lolium multiflorum", "how_it_was_run": "as §1"}, "wheat": {"tested_on": "wheat", "type": "in vivo, Triticum aestivum", "how_it_was_run": "as §1"}, "oilseed rape": {"tested_on": "oilseed rape", "type": "in vivo, Brassica napus", "how_it_was_run": "as §1"}, "soybean": {"tested_on": "soybean", "type": "in vivo, Glycine max", "how_it_was_run": "as §1"}, "waterhemp": {"tested_on": "waterhemp", "type": "in vivo, Amaranthus rudis", "how_it_was_run": "as §1"}, "chickweed": {"tested_on": "chickweed", "type": "in vivo, Stellaria media", "how_it_was_run": "as §1"}, "pigweed": {"tested_on": "pigweed", "type": "in vivo, Amaranthus retroflexus", "how_it_was_run": "as §1"}, "ragweed": {"tested_on": "ragweed", "type": "in vivo, Ambrosia elation", "how_it_was_run": "as §1"}, "foxtail, giant": {"tested_on": "foxtail, giant", "type": "in vivo, Setaria faberii", "how_it_was_run": "as §1"}, "johnsongrass": {"tested_on": "johnsongrass", "type": "in vivo, Sorghum halepense", "how_it_was_run": "as §1"}, "morningglory": {"tested_on": "morningglory", "type": "in vivo, Ipomoea coccinea", "how_it_was_run": "as §1"}, "blackgrass": {"tested_on": "blackgrass", "type": "in vivo, Alopecurus myosuroides", "how_it_was_run": "as §1"}, "kochia": {"tested_on": "kochia", "type": "in vivo, Kochia scoparia", "how_it_was_run": "as §1"}, "oat, wild": {"tested_on": "oat, wild", "type": "in vivo, Avena fatua", "how_it_was_run": "as §1"}, "nutsedge, yellow": {"tested_on": "nutsedge, yellow", "type": "in vivo, Cyperus esculentus", "how_it_was_run": "as §1"}, "lambsquarters": {"tested_on": "lambsquarters", "type": "in vivo, Chenopodium album", "how_it_was_run": "as §1"}, "[1]": {"settings": "Postemergence, 31 g ai/ha, visually evaluated after 13 to 15 days"}, "[2]": {"settings": "postemergence, 62 g ai/ha, scale 0 to 100"}, "[3]": {"settings": "postemergence, 250 g ai/ha, scale 0 to 100 (0 no effect, 100 complete control)"}, "[4]": {"settings": "postemergence, 125 g ai/ha, scale 0 to 100, 0 no effect, 100 complete control"}}}
{"smiles": "CCNC(=O)c1cc(CC)n(Cc2ccnc(OC(F)F)c2)n1", "note": "[Compound 130]", "values": [{"measurement": "Plant response rating (scale of 0 to 100 where 0 is no effect and 100 is complete control), Barnyardgrass", "setting": "barnyardgrass; [1]", "value": 5}, {"measurement": "Barnyardgrass plant response rating", "setting": "barnyardgrass; [2]", "value": 5}, {"measurement": "Plant response rating, Barnyardgrass", "setting": "barnyardgrass; [3]", "value": 10}, {"measurement": "Plant response rating, Barnyardgrass", "setting": "barnyardgrass; [4]", "value": 5}, {"measurement": "Plant response rating (scale of 0 to 100 where 0 is no effect and 100 is complete control), Ryegrass, Italian", "setting": "ryegrass, Italian; [1]", "value": 5}, {"measurement": "Ryegrass, Italian plant response rating", "setting": "ryegrass, Italian; [2]", "value": 5}, {"measurement": "Plant response rating, Ryegrass, Italian", "setting": "ryegrass, Italian; [3]", "value": 15}, {"measurement": "Plant response rating, Ryegrass, Italian", "setting": "ryegrass, Italian; [4]", "value": 10}, {"measurement": "Plant response rating (scale of 0 to 100 where 0 is no effect and 100 is complete control), Wheat", "setting": "wheat; [1]", "value": 0}, {"measurement": "Wheat plant response rating", "setting": "wheat; [2]", "value": 0}, {"measurement": "Plant response rating, Wheat", "setting": "wheat; [3]", "value": 5}, {"measurement": "Plant response rating, Wheat", "setting": "wheat; [4]", "value": 5}, {"measurement": "Plant response rating (scale of 0 to 100 where 0 is no effect and 100 is complete control), Oilseed Rape", "setting": "oilseed rape; [1]", "value": 35}, {"measurement": "Oilseed Rape plant response rating", "setting": "oilseed rape; [2]", "value": 40}, {"measurement": "Plant response rating, Oilseed Rape", "setting": "oilseed rape; [3]", "value": 60}, {"measurement": "Plant response rating, Oilseed Rape", "setting": "oilseed rape; [4]", "value": 55}, {"measurement": "Plant response rating (scale of 0 to 100 where 0 is no effect and 100 is complete control), Soybean", "setting": "soybean; [1]", "value": 70}, {"measurement": "Soybean plant response rating", "setting": "soybean; [2]", "value": 80}, {"measurement": "Plant response rating, Soybean", "setting": "soybean; [3]", "value": 98}, {"measurement": "Plant response rating, Soybean", "setting": "soybean; [4]", "value": 65}, {"measurement": "Plant response rating (scale of 0 to 100 where 0 is no effect and 100 is complete control), Waterhemp", "setting": "waterhemp; [1]", "value": 30}, {"measurement": "Waterhemp plant response rating", "setting": "waterhemp; [2]", "value": 55}, {"measurement": "Plant response rating, Waterhemp", "setting": "waterhemp; [3]", "value": 80}, {"measurement": "Plant response rating, Waterhemp", "setting": "waterhemp; [4]", "value": 70}, {"measurement": "Plant response rating (scale of 0 to 100 where 0 is no effect and 100 is complete control), Chickweed", "setting": "chickweed; [1]", "value": 65}, {"measurement": "Chickweed plant response rating", "setting": "chickweed; [2]", "value": 70}, {"measurement": "Plant response rating, Chickweed", "setting": "chickweed; [3]", "value": 75}, {"measurement": "Plant response rating, Chickweed", "setting": "chickweed; [4]", "value": 75}, {"measurement": "Plant response rating (scale of 0 to 100 where 0 is no effect and 100 is complete control), Pigweed", "setting": "pigweed; [1]", "value": 30}, {"measurement": "Pigweed plant response rating", "setting": "pigweed; [2]", "value": 65}, {"measurement": "Plant response rating, Pigweed", "setting": "pigweed; [3]", "value": 85}, {"measurement": "Plant response rating, Pigweed", "setting": "pigweed; [4]", "value": 50}, {"measurement": "Plant response rating (scale of 0 to 100 where 0 is no effect and 100 is complete control), Ragweed", "setting": "ragweed; [1]", "value": 30}, {"measurement": "Ragweed plant response rating", "setting": "ragweed; [2]", "value": 35}, {"measurement": "Plant response rating, Ragweed", "setting": "ragweed; [3]", "value": 85}, {"measurement": "Plant response rating, Ragweed", "setting": "ragweed; [4]", "value": 45}, {"measurement": "Plant response rating (scale of 0 to 100 where 0 is no effect and 100 is complete control), Foxtail, Giant", "setting": "foxtail, giant; [1]", "value": 40}, {"measurement": "Foxtail, Giant plant response rating", "setting": "foxtail, giant; [2]", "value": 15}, {"measurement": "Plant response rating, Foxtail, Giant", "setting": "foxtail, giant; [3]", "value": 55}, {"measurement": "Plant response rating, Foxtail, Giant", "setting": "foxtail, giant; [4]", "value": 20}, {"measurement": "Plant response rating (scale of 0 to 100 where 0 is no effect and 100 is complete control), Johnsongrass", "setting": "johnsongrass; [1]", "value": 0}, {"measurement": "Johnsongrass plant response rating", "setting": "johnsongrass; [2]", "value": 5}, {"measurement": "Plant response rating, Johnsongrass", "setting": "johnsongrass; [3]", "value": 10}, {"measurement": "Plant response rating, Johnsongrass", "setting": "johnsongrass; [4]", "value": 5}, {"measurement": "Plant response rating (scale of 0 to 100 where 0 is no effect and 100 is complete control), Morningglory", "setting": "morningglory; [1]", "value": 35}, {"measurement": "Morningglory plant response rating", "setting": "morningglory; [2]", "value": 75}, {"measurement": "Plant response rating, Morningglory", "setting": "morningglory; [3]", "value": 98}, {"measurement": "Plant response rating, Morningglory", "setting": "morningglory; [4]", "value": 85}, {"measurement": "Plant response rating (scale of 0 to 100 where 0 is no effect and 100 is complete control), Blackgrass", "setting": "blackgrass; [1]", "value": 5}, {"measurement": "Blackgrass plant response rating", "setting": "blackgrass; [2]", "value": 5}, {"measurement": "Plant response rating, Blackgrass", "setting": "blackgrass; [3]", "value": 10}, {"measurement": "Plant response rating, Blackgrass", "setting": "blackgrass; [4]", "value": 10}, {"measurement": "Plant response rating (scale of 0 to 100 where 0 is no effect and 100 is complete control), Kochia", "setting": "kochia; [1]", "value": 65}, {"measurement": "Kochia plant response rating", "setting": "kochia; [2]", "value": 75}, {"measurement": "Plant response rating, Kochia", "setting": "kochia; [3]", "value": 90}, {"measurement": "Plant response rating, Kochia", "setting": "kochia; [4]", "value": 90}, {"measurement": "Plant response rating (scale of 0 to 100 where 0 is no effect and 100 is complete control), Oat, Wild", "setting": "oat, wild; [1]", "value": 5}, {"measurement": "Oat, Wild plant response rating", "setting": "oat, wild; [2]", "value": 10}, {"measurement": "Plant response rating, Oat, Wild", "setting": "oat, wild; [3]", "value": 15}, {"measurement": "Plant response rating, Oat, Wild", "setting": "oat, wild; [4]", "value": 15}, {"measurement": "Plant response rating (scale of 0 to 100 where 0 is no effect and 100 is complete control), Nutsedge, Yellow", "setting": "nutsedge, yellow; [1]", "value": 0}, {"measurement": "Nutsedge, Yellow plant response rating", "setting": "nutsedge, yellow; [2]", "value": 5}, {"measurement": "Plant response rating, Nutsedge, Yellow", "setting": "nutsedge, yellow; [3]", "value": 10}, {"measurement": "Plant response rating, Nutsedge, Yellow", "setting": "nutsedge, yellow; [4]", "value": 5}, {"measurement": "Plant response rating (scale of 0 to 100 where 0 is no effect and 100 is complete control), Lambsquarters", "setting": "lambsquarters; [1]", "value": 25}, {"measurement": "Lambsquarters plant response rating", "setting": "lambsquarters; [2]", "value": 30}, {"measurement": "Plant response rating, Lambsquarters", "setting": "lambsquarters; [3]", "value": 75}, {"measurement": "Plant response rating, Lambsquarters", "setting": "lambsquarters; [4]", "value": 65}]}
